Test [1] addresses T1, α1b (hamster) adrenoceptor (Mesocricetus auratus, UniProt P18841).
T1 construct: expressed in transfected cells; cDNA from TULCO
T1 sequence (P18841 1-515): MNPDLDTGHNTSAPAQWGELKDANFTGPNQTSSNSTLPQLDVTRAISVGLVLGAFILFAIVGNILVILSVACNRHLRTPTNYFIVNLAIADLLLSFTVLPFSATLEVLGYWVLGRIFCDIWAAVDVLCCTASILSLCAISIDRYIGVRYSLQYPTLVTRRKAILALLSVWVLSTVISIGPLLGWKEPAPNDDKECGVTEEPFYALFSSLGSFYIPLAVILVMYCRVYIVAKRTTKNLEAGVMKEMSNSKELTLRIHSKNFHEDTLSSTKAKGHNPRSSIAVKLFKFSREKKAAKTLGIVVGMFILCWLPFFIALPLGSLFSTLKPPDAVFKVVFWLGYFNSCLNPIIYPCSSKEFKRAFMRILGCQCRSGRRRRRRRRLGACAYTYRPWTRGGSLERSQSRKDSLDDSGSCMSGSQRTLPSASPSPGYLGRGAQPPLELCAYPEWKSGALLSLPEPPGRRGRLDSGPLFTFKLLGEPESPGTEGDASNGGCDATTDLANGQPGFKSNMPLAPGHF
In words: Radioligand binding cloned α1b adrenoceptor expressed in LTK cells, [3H]-prazosin. To be noted: LTK cell membranes, [3H]prazosin 0.2 nM. How it is done: (§1) Representative compounds of the invention were evaluated for α-adrenoceptor binding affinity in vitro using [^3 H]-prazosin as the radioligand and two cloned α1 adrenoceptors expressed in LTK cells: α1b (hamster), and α1d (rat). Additionally, binding affinity against the pharmacologically defined α1A adrenoceptor (rat submaxillary gland) was measured.
(§2) The cDNA clones encoding the α-1 adrenoceptors (α1b and α1d) were obtained from TULCO (Triangle Universities Licensing Consortium, Research Triangle Park, N.C.) and inserted into the eukaryotic expression vector SnaB30. In this vector, expression of the adrenoceptor gene is under the transcriptional control of an SV40 early promoter. Positive drug selection is provided by a neomycin-resistance gene. Mouse fibroblast cells (LTK) were transfected with the α1 expression plasmids and grown in Dulbecco's modified Eagle's medium (DMEM) containing 10% fetal calf serum and […] G418. Stable G418-resistant parental lines were generated and successful expression of adrenoceptor protein was monitored using radioligand binding techniques. Stable single cell clones derived from the parental lines were screened in adrenoceptor binding assays to identify clones having high adrenoceptor density. Roller bottle cultures of the cloned lines were used to provide cell membranes for subsequent adrenoceptor binding characterization studies. A cell line containing the SnaB30 vector expressing the human erythropoietin gene served as a negative control.
For adrenoceptor binding assays, large scale membrane preparations were utilized in which 6 million cells were seeded into small (450 cm^2) Corning tissue culture roller bottles. 200 mL of DMEM containing 10% fetal calf serum and […] G418 were added to each roller bottle. A 95% air/5% CO2 gas mixture (sterile) was injected into each roller bottle prior to sealing. The bottles were incubated at 37° C. on a roller rack for 5 days. Cells were re-fed with fresh medium after 3 days in culture.
On the fifth day of culture, growth medium was removed from cells grown in the roller bottles, and the cells were washed twice with PBS (Sigma, 120 mM NaCl, 2.7 mM KCl, 10 mM Na2 HPO4 --NaH2 PO4, pH=7.4). Cells were detached from the roller bottles by incubating for 15 minutes at 37° C. in a Tris-EDTA solution (10 mM Tris, 100 mM NaCl, 1 mM EDTA, pH=7.4). The cell suspension from each roller bottle was decanted into preweighed centrifuge tubes and kept on ice. An aliquot of each cell suspension was generally taken for cell counting. Cells were centrifuged at 3000×G for 5 min at 2-4° C., washed with PBS and recentrifuged. The supernatant was decanted and the pellet was weighed to determine the wet weight of cells. Cells were washed a final time in 40 vol 5 mM Tris-HCl, 5 mM EDTA, pH=7.7, centrifuged at 40,000×G for 10 minutes, homogenized in 10 mL of 50 mM Tris-HCl, 5 mM EDTA (pH=7.4), and diluted to 40 mL/tube. Homogenates were centrifuged at 40,000×G for 10 minutes. The supernatant was decanted and the pellets were rehomogenized in 50 mM Tris-HCl (pH=7.4) and centrifuged as before.
Briefly, plastic Bioblocks™ (DBM Scientific, Valencia, Calif.) were incubated at 25° C. for 50 minutes with […] of membrane homogenate (diluted with an additional 96 volumes (for cloned adrenoceptors, 12 volumes for submaxillary gland)) in 50 mM Tris-HCl buffer (pH=7.7 at the time of assay), […] of [^3 H]prazosin (0.2 nM final concentration, 75-85 Ci/mmole, DuPont-NEN Corp., Boston, Mass.), and […] of either water (for total binding) or […] phentolamine (final concentration, for non-specific binding). Following equilibration, bound radioligand was separated from free on GF/B filters (presoaked in 0.5% polyethyleneamine) using either a Brandel or Packard cell harvester. Radioactivity was determined by standard liquid scintillation techniques.

Test [2] has as its target T2, α1A adrenoceptor (rat submaxillary gland) (Rattus norvegicus, UniProt P43140).
T2 construct: from tissue; host or cells: rat submaxillary gland membranes
T2 sequence (P43140 1-466): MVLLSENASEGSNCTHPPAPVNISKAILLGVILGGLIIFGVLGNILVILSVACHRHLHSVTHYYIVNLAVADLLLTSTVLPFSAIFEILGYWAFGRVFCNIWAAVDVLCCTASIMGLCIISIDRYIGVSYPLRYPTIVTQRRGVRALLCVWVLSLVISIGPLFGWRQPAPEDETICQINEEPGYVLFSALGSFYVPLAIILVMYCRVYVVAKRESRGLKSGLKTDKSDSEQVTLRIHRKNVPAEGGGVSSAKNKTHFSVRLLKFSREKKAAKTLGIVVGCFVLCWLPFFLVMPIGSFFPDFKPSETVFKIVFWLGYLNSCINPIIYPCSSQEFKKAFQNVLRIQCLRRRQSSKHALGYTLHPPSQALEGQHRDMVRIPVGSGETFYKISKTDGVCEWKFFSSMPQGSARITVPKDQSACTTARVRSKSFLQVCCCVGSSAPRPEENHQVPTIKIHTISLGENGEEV
As to the kind of experiment: Radioligand binding α1A (rat submaxillary gland), [3H]-prazosin. How it is done: as §1
On the fifth day of culture, growth medium was removed from cells grown in the roller bottles, and the cells were washed twice with PBS (Sigma, 120 mM NaCl, 2.7 mM KCl, 10 mM Na2 HPO4 --NaH2 PO4, pH=7.4). Cells were detached from the roller bottles by incubating for 15 minutes at 37° C. in a Tris-EDTA solution (10 mM Tris, 100 mM NaCl, 1 mM EDTA, pH=7.4). […]
Briefly, plastic Bioblocks™ (DBM Scientific, Valencia, Calif.) were incubated at 25° C. for 50 minutes with […] of membrane homogenate (diluted with an additional 96 volumes (for cloned adrenoceptors, 12 volumes for submaxillary gland)) in 50 mM Tris-HCl buffer (pH=7.7 at the time of assay), […] of [^3 H]prazosin (0.2 nM final concentration, 75-85 Ci/mmole, DuPont-NEN Corp., Boston, Mass.), and […] of either water (for total binding) or […] phentolamine (final concentration, for non-specific binding). […] Radioactivity was determined by standard liquid scintillation techniques.

The test system of test [3] is EPI induced increase in canine IUP. In words: In vivo intraurethral pressure (IUP) in canines, inhibition of EPI induced increase. More on the design: species or system Beagle dogs. To be noted: in vivo pseudo pA2 by Schild analysis; antagonist i.v.; epinephrine; propranolol-treated dogs; * (tamsulosin): add 0.4 if slope adjusted to 1. How it is done: The intraurethral pressure (IUP) model in aged canines is an accepted model of measuring the effect of prostate smooth muscle contraction on urethral tone. Canines also have an enclosed prostate covering the urethral shaft and thus provide an anatomical correlate with humans.
Beagle dogs (Marshall Farms) greater that 2 years of age and weighing between 12 and 15 kg were pre-anesthetized with thiopental sodium 15 mg/kg i.v. (Pentothal™, Abbott Laboratories, Abbott Park, Ill.) then placed under general anesthesia (isoflurane). A 7F Swan-Ganz balloon catheter (Multiflex-list no. 41224-01, Abbott) was lubricated with a water soluble jelly, inserted into the urethral orifice and advanced approximately 40 cm in male dogs (considerably less in females) until the balloon tip was placed well inside the bladder. The balloon was then inflated with 1 mL of room air, and the catheter was slowly withdrawn just past the first resistance that is felt at the bladder neck. Preliminary experiments in which dogs were sacrificed after such placement confirmed that this technique results in consistent positioning of the balloon within the prostatic urethra in males or the corresponding location in females. The balloon port of the catheter was connected to a Gould Statham P23Dd pressure transducer interfaced to a computerized data acquisition system (Modular Instruments, Inc., Malvern, Pa.) for the measurement of intraurethral pressure (IUP).
Dogs were then treated with propranolol to block the β-adrenoceptor agonist effects of test agonists. Dose-response curves of the intraurethral pressor effect of epinephrine (EPI) were obtained before and after each of up to 3 increasing doses of a test antagonist (i.v.). Fifteen minutes were allowed after each antagonist dose for equilibration before the next agonist dose-response was initiated. The increase in IUP caused by a given agonist dose was allowed to return to baseline before the next dose was given. The estimated antagonist dissociation constant (in vivo pseudo pA2) was determined by Schild analysis (Brune, et al., Drug Development Research, 34:267-275 (1995).

A further test concerns the target T3, α1d (rat) adrenoceptor (Rattus norvegicus, UniProt P23944).
T3 construct: expressed in transfected cells; cDNA from TULCO
T3 sequence (P23944 1-561): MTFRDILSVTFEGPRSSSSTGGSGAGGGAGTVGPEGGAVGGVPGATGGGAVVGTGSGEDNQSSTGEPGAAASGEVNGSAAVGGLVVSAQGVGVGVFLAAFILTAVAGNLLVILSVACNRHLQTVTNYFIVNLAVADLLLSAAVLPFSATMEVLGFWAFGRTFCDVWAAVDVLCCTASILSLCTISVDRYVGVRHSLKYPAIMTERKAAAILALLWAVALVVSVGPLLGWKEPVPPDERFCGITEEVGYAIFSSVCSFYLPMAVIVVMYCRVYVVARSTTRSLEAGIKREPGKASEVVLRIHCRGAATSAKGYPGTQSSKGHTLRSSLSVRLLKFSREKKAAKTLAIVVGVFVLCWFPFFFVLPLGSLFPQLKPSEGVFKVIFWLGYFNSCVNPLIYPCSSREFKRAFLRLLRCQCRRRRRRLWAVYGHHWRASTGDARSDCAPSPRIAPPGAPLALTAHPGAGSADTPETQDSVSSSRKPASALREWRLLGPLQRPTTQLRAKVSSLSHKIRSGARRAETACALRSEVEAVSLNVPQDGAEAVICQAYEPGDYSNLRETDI
As to the kind of experiment: Radioligand binding cloned α1d adrenoceptor expressed in LTK cells, [3H]-prazosin. To be noted: LTK cell membranes, [3H]prazosin 0.2 nM. How it is done: as §1
as §2, with “A cell line containing the SnaB30 vector expressing the human erythropoietin gene served as a negative control.” left out

The Ki is a measure of affinity in units of concentration, obtained from inhibition or displacement. High values mean lower affinity, low ones higher affinity. As to `COc1ccccc1N1CCN(CCn2c(=O)[nH]c3scc(-c4cccc(C)c4)c3c2=O)CC1` [Example 4, 3-[4-(2-methoxyphenyl)piperazinylethyl]-5-(3-methylphenyl)thieno[2,3-d]pyrimidine-2,4-dione], the Ki in test [1] came to 2.74 nM.

Consider `CCOc1ccccc1OCCN[C@H](C)Cc1ccc(OC)c(S(N)(=O)=O)c1` [tamsulosin, reference compound], for which the Ki in test [2] was found to be 0.028 nM; in test [1], 0.204 nM. Moreover, the “IUP (pA2)” value in test [3] amounted to 8.91.

In the case of `COc1ccccc1N1CCN(CCn2c(=O)[nH]c3scc(-c4ccccc4)c3c2=O)CC1` [Example 1, 3-[4-(2-methoxyphenyl)piperazinylethyl]-5-phenylthieno[2,3-d]pyrimidine-2,4-dione], in test [1], the Ki was 3.41 nM. In addition, in test [3], the “IUP (pA2)” value is 7.95. As to `COc1ccccc1N1CCN(CCn2c(=O)[nH]c3sc(C)c(-c4ccccc4)c3c2=O)CC1` [Example 2, 3-[4-(2-methoxyphenyl)piperazinylethyl]-6-methyl-5-phenylthieno[2,3-d]pyrimidine-2,4-dione], the affinity in test [1], expressed as Ki, was 2.44 nM. In the case of `COc1cc2nc(N3CCN(C(=O)C4CCCO4)CC3)nc(N)c2cc1OC` (stereo not drawn) [terazosin, reference compound], the “IUP (pA2)” value in test [3] was 6.97. On α1d (rat) adrenoceptor, this compound registered an inhibition constant (Ki) of 1.01 nM. Compound `COc1ccccc1N1CCN(CCn2c(=O)c3c(-c4ccccc4)csc3n(C)c2=O)CC1` [Example 3, 3-[4-(2-methoxyphenyl)piperazinylethyl]-1-methyl-5-phenylthieno[2,3-d]pyrimidine-2,4-dione] came in with a Ki in test [1] of 4.47 nM. For the compound `COc1ccccc1N1CCN(CCn2c(=O)[nH]c3sc(-c4ccccc4)cc3c2=O)CC1` [Example 5, 3-[4-(2-methoxyphenyl)piperazinylethyl]-6-phenylthieno[2,3-d]pyrimidine-2,4-dione], the affinity in test [1] corresponds to a Ki of 1.86 nM. The “IUP (pA2)” value in test [3] is reported as 8.47.

(Values after patent publication US6153614A, “Piperazinyl pyrimidine dione compounds selective for adrenoceptors” (Abbott Laboratories, priority 1998, dated 2000).)
